Data on 2 compounds can be found in patent US12551464B2, “N-(3-amino-3-oxopropyl)-2-[(1-methyl-4-nitro-1H-imidazol-5-yl)thio]benzamide and its use for treating HIV infection” (The United States of America, as represented by the …, priority 2019, dated 2026).

A short description of data set [1]: Toxicity of metabolite, method not described.
A short description of data set [2]: Pharmacokinetics in cynomolgus macaques. The data set is classed as in vivo. Particulars: 300 mg/kg p.o. oral gavage. Here is the method: The compound of formula (I) was administered to cynomolgus macaques at a dose of 300 mg/kg p.o. via oral gavage.
Data set [3] in a line: Maximum tolerated dose and dose range finding study in rats. The format is in vivo. Here is the method:
The maximum tolerated dose in rats of the compound of formula (I) was determined to be greater than 2 g/day.

A short description of data set [4]: CD4 count in SIV-infected rhesus macaques. The data set is classed as in vivo. Here is the method: (§1) Two SIV-infected rhesus macaques were treated with 300 mg/kg of the compound of formula (I) once daily via oral gavage. Viral load before treatment and after 6 months of treatment were measured by RT-PCR. Viral infectivity was determined by measuring the amount of p27 Gag (in pg/mL) in a viral infectivity assay wherein virus isolated from the animals was used to infect CEMx174 cells, followed by ELISA. Viral samples were diluted 1:1000 prior to assay. The CD4 count for each monkey was measured after 6 months.

In data set [5] the test system is PBMCs. Description: Cytotoxicity in human PBMCs, XTT staining. The data set is classed as cell-based. Particulars: 7 days in culture, read-out: TC50 (the source's name). Here is the method:
(§2) PHA-P stimulated PBMCs from three donors were pooled together and resuspended in fresh tissue culture medium at 1×10^6 cells/mL and plated in the interior wells of a 96 well round bottom microplate at 50 μL/well. A 100 μL volume of 9 concentrations of the compound serially diluted were transferred to the round bottom 96 well plate containing the cells in triplicate. 50 μL of HIV-1 at a predetermined dilution was added. Each plate contained cell control wells and virus control wells in parallel with the experimental wells. After 7 days in culture, efficacy was evaluated by measuring the reverse transcriptase in the culture supernatants and the cells were stained with the tetrazolium dye XTT to evaluate cytotoxicity.
A general note: Tetrazolium dyes change colour on reduction, which living cells bring about.

Data set [6] is described as follows: Cytotoxicity in human PBMCs, XTT staining. The note with it: human, PHA-P stimulated PBMCs pooled from three donors; Incubation Time 0 hours; 7 days in culture; read-out: TC50. The data set is classed as cell-based. Here is the method: as §2
In data set [7] the test system is simian immunodeficiency virus (SIV). Description: Viral infectivity assay: virus isolated from the animals used to infect CEMx174 cells, p27 Gag ELISA. The data set is classed as in vivo, rhesus macaques. As for the experimental part:
as §1
On the technique in general: An ELISA detects its analyte on a solid surface through an enzyme-linked reagent.

Data set [8] concerns CXCR4 Tropic Clade B HIV-192HT599. Description: Anti-HIV activity in human PBMCs, reverse transcriptase in culture supernatants. The format is cell-based. Particulars: PBMC, 7 days in culture. As for the experimental part:
as §2

In data set [9] the test system is simian immunodeficiency virus (SIV). The data set is described as follows: Viral load by RT-PCR in SIV-infected rhesus macaques. The format is in vivo. Here is the method: as §1

The AUC is concentration integrated over time. Read a low AUC as less exposure. The half-life is the time needed for the level to fall by half in the phase considered. Lower therefore signals fast loss. The term MTD denotes the highest dose tested that stayed within the study's limit of toxicity. Read a low MTD as poorer tolerability. A word on the pEC50: it is the negative decadic logarithm of the EC50, by convention in mol/L. A high value points to a small EC50.

pEC50: −log10 of the molar value. Several values for one entry are separate records, joined by “and”; a condition that tells them apart may be missing. Equal entries are not always repeated. Where two headings read alike, the source gives them in different places.

For the compound `CSc1ccccc1C(=O)NCCC(N)=O` [Compound 3], in data set [1], the toxicity entry is “non-toxic”.
Consider `Cn1cnc([N+](=O)[O-])c1Sc1ccccc1C(=O)NCCC(N)=O` [compound of formula (I), N-(3-amino-3-oxopropyl)-2-[(1-methyl-4-nitro-1H-imidazol-5-yl)thio]benzamide], for which the metabolism in blood entry in data set [2] is listed as “converted to two major metabolites”. The AUC in [2] (cynomolgus monkey, blood) came out at 5780 ng·h/mL. The half-life in data set [2] (cynomolgus monkey, blood) is 7.6 h. In [3] (2 g/kg p.o., once per day for 14 days), the “adverse clinical outcomes in dose range finding study” value is on record as “did not show adverse clinical outcomes”. This compound also came in with an MTD at 14 days in data set [3] (rat, in vivo, oral, 2 g/kg) greater than 2000 mg/kg/day. Further, in data set [4] (300 mg/kg once daily oral gavage, after 6 months), the “Treated CD4 Count” value was 365 and 363. In addition, the “CD4 counts, assessment” value in data set [4] (after 6 months of 300 mg/kg p.o. daily) is listed as “deemed normal”. In addition, the CC50 in [5] (Incubation Time 2 hours), in [5] (Incubation Time 8 hours) and in data set [5] (Incubation Time 24 hours) was greater than 100 µM each time. Also, the CC50 at 7 days in [6] is greater than 100 µM. Also, the “Treated Viral Infectivity (p27 Gag)” value in data set [7] (300 mg/kg once daily oral gavage, 6 months, viral samples diluted 1:1000, CEMx174 cells, ELISA) was less than 0.1 pg/mL. Besides, the “viral infectivity of SIV from treated animals compared with before treatment” value in data set [7] (300 mg/kg p.o. daily over 6 months) is listed as “significantly decreased”. Besides, the pEC50 in data set [8] (Incubation Time 0 hours) was 5.49; in data set [8] (Incubation Time 2 hours), 5.15; in data set [8] (Incubation Time 8 hours), 5.29; in [8] (Incubation Time 24 hours), 5.35. The “Treated Viral Load” value in [9] (300 mg/kg once daily oral gavage, after 6 months of treatment, RT-PCR) was 2.86 × 10^4 and 1.73 × 10^3. Also, the “reduction in viral load” value in [9] (300 mg/kg p.o. daily over 6 months, versus before treatment) was “approximately one”.
